The record followed here is ChEMBL document CHEMBL4028801, “A multifactorial approach to hepatobiliary transporter assessment enables improved therapeutic compound development” (Toxicol Sci, 2013).

Structures can show the parent of a compound that is named as a salt.

In one experiment the target is Bile salt export pump (Homo sapiens, UniProt O95342). Nature of the experiment: Inhibition of human BSEP overexpressed in Sf9 cell membrane vesicles assessed as uptake of [3H]-taurocholate in presence of ATP measured after 15 to 20 mins by membrane vesicle transport assay. The experiment is classed as ADME, cell-based.
Experiment [1] addresses ATP-binding cassette sub-family C member 2 (Homo sapiens, UniProt Q92887). Nature of the experiment: Inhibition of human MRP2 overexpressed in Sf9 cell membrane vesicles assessed as uptake of [3H]-estradiol-17beta-D-glucuronide in presence of ATP and GSH measured after 20 mins by membrane vesicle transport assay.
In experiment [2] the target is ATP-binding cassette sub-family C member 3 (Homo sapiens, UniProt O15438). Nature of the experiment: Inhibition of human MRP3 overexpressed in Sf9 insect cell membrane vesicles assessed as uptake of [3H]-estradiol-17beta-D-glucuronide in presence of ATP and GSH measured after 10 mins by membrane vesicle transport assay. Format: ADME, cell-based.
Experiment [3] deals with T1, ATP-binding cassette sub-family C member 4 (Homo sapiens, UniProt O15439).
T1 sequence (O15439 whole entry): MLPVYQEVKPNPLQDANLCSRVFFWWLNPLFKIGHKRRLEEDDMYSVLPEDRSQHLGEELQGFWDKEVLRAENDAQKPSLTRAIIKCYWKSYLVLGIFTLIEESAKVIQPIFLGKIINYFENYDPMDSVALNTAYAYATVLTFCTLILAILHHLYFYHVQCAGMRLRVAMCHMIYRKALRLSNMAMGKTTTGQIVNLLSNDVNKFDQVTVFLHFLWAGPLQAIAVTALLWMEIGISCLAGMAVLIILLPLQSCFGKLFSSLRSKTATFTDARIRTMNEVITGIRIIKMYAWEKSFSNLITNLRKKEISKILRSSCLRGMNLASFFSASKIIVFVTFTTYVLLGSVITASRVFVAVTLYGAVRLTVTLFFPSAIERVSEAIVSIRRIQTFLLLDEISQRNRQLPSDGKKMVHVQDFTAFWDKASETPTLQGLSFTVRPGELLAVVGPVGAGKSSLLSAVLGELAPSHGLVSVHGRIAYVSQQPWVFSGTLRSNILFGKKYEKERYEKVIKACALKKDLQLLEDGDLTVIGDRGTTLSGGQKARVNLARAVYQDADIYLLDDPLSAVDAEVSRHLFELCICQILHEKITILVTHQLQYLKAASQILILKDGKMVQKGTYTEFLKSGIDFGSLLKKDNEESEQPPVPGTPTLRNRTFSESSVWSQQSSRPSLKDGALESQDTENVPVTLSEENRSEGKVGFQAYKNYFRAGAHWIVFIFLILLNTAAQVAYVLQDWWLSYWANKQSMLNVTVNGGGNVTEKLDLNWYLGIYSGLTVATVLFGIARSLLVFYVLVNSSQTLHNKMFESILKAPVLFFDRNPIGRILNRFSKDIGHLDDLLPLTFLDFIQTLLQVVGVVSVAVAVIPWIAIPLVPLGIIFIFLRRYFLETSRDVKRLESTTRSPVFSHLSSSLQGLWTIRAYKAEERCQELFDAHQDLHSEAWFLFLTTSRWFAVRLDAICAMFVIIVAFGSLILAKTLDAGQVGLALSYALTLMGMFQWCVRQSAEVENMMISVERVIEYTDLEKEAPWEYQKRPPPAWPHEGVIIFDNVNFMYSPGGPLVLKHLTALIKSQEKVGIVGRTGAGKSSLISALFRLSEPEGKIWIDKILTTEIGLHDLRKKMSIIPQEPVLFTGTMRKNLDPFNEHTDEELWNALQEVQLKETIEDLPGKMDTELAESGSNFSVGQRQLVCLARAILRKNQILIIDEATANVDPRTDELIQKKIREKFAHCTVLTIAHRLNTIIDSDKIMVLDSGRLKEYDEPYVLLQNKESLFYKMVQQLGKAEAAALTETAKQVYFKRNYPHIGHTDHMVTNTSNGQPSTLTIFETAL
Nature of the experiment: Inhibition of human MRP4 overexpressed in Sf9 cell membrane vesicles assessed as uptake of [3H]-estradiol-17beta-D-glucuronide in presence of ATP and GSH measured after 20 mins by membrane vesicle transport assay. The experiment is classed as ADME, cell-based.

Chain of ATP-binding cassette sub-family C member 2 (Q92887 whole entry): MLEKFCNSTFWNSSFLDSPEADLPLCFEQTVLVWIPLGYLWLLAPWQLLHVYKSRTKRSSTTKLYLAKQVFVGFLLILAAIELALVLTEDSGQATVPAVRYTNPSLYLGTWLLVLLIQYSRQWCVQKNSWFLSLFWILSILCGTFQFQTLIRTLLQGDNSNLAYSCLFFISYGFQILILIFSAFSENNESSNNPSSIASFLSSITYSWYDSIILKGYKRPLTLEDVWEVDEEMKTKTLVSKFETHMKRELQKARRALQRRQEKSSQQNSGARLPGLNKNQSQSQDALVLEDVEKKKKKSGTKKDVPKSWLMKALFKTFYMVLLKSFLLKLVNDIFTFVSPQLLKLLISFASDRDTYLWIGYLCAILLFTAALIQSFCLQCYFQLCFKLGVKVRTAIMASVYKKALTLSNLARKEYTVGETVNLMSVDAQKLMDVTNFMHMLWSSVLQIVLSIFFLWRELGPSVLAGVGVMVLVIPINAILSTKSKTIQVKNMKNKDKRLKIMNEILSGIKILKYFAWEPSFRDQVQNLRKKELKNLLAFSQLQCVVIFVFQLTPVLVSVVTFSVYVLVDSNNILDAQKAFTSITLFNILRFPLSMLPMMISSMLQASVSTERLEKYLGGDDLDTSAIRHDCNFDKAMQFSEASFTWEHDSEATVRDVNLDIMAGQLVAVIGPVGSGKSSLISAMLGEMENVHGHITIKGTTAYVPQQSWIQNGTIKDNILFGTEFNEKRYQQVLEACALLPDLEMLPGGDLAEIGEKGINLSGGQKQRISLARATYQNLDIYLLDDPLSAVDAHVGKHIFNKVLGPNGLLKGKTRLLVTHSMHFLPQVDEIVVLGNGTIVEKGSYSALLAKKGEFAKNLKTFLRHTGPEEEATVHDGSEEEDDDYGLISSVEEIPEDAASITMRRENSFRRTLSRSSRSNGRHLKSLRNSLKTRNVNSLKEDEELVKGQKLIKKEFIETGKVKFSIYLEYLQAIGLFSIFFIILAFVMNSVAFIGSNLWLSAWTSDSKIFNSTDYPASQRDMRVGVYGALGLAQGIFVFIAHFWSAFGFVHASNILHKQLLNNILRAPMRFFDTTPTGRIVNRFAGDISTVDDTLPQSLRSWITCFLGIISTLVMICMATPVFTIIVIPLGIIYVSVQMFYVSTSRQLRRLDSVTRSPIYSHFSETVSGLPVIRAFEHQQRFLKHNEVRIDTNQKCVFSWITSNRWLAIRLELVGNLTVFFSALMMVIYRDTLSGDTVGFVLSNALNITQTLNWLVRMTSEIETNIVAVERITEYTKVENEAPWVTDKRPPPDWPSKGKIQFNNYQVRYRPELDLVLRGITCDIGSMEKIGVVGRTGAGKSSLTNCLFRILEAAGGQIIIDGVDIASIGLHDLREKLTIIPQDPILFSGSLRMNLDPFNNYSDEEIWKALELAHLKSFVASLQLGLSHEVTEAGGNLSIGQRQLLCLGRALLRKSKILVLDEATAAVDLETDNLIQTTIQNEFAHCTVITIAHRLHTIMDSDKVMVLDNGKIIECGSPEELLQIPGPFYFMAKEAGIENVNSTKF
Chain of ATP-binding cassette sub-family C member 3 (O15438 whole entry): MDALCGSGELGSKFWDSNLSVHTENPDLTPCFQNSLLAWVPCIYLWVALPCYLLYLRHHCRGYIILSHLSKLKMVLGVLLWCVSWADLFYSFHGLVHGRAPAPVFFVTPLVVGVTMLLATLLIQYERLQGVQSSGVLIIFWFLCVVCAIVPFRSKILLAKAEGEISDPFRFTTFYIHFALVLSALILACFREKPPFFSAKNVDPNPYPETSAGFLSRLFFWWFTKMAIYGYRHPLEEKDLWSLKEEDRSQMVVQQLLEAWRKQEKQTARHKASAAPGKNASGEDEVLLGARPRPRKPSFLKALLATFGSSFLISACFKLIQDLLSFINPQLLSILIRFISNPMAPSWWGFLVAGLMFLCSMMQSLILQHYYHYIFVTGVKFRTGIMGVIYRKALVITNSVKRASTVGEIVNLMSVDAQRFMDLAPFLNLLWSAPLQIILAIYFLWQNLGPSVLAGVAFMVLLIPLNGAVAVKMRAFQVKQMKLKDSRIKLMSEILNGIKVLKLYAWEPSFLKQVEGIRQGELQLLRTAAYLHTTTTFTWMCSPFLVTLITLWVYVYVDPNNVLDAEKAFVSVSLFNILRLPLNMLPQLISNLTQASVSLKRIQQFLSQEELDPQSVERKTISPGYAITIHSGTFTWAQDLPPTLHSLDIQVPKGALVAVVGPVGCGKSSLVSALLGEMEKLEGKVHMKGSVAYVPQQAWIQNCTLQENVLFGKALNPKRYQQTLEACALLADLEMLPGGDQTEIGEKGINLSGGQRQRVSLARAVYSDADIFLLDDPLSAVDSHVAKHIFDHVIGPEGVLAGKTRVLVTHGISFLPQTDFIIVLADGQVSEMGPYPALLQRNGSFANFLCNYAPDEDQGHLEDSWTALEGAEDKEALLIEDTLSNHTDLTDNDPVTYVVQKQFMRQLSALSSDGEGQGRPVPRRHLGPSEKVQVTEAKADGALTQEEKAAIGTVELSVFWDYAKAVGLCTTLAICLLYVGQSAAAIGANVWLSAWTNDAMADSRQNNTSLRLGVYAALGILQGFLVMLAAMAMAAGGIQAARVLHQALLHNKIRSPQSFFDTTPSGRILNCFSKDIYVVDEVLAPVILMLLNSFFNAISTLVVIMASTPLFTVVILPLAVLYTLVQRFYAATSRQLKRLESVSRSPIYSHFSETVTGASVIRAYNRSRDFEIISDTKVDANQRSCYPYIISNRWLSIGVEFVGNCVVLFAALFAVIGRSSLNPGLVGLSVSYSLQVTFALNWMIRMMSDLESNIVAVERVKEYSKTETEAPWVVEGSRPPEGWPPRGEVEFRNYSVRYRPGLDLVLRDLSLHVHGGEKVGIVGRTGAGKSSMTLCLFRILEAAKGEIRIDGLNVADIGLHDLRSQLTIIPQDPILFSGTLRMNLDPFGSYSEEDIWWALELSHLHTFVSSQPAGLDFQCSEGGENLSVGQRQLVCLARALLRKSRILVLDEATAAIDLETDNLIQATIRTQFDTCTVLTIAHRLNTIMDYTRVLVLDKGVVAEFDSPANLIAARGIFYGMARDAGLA
Chain of Bile salt export pump (O95342 whole entry): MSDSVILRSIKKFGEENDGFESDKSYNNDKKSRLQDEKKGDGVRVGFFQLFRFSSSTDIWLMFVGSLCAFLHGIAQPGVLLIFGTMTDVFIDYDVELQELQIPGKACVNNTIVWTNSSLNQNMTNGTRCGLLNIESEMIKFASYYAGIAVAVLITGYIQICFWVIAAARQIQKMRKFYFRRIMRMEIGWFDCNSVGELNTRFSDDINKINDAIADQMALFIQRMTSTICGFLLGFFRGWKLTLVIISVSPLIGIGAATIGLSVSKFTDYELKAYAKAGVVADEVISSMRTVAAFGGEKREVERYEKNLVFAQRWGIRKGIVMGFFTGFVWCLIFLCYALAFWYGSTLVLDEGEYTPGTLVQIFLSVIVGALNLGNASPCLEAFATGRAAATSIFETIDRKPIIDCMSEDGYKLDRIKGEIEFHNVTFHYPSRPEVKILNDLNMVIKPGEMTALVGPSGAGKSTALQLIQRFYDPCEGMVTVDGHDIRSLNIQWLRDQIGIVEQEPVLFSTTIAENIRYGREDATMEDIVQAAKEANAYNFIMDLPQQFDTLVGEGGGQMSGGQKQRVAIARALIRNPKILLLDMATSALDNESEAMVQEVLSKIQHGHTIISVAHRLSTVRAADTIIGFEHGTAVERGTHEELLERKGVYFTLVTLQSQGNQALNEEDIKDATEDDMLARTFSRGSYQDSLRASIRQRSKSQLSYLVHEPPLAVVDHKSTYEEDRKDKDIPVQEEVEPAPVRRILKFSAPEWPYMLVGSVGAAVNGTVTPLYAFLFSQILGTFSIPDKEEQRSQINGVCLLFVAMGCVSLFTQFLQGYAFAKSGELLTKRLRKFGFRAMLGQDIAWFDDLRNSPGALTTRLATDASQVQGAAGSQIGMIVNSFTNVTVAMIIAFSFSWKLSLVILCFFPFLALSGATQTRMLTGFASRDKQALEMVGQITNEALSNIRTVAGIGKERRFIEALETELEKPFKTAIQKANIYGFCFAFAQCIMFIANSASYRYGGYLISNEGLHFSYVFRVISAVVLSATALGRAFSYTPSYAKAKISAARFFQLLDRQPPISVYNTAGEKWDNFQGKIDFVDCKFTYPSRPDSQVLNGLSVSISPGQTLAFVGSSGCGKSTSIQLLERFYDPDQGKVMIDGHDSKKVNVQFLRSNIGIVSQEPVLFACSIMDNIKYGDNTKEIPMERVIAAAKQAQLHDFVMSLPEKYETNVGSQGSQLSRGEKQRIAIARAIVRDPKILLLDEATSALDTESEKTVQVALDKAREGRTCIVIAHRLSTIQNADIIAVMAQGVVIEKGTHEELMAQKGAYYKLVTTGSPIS

Turning to `CC1=NS(=O)(=O)c2cc(Cl)ccc2N1` [DIAZOXIDE], the IC50 (at Bile salt export pump; in experiment [1]; in experiment [2]; in experiment [3]) was over 133 µM throughout.
In the case of SPIRAMYCIN, the half-maximal inhibitory concentration (IC50) (at Bile salt export pump; in experiment [1]; in experiment [2]; in experiment [3]) was over 133 µM each time.
Take `CC(=O)Oc1ccccc1C(=O)Nc1ncc([N+](=O)[O-])s1` [NITAZOXANIDE]: the IC50 (at Bile salt export pump; in experiment [1]; in experiment [2]; in experiment [3]) was over 133 µM throughout.
In the case of `CN1CCN(C(=O)OC2c3nccnc3C(=O)N2c2ccc(Cl)cn2)CC1` (centres undefined) [ZOPICLONE], the IC50 (on Bile salt export pump; in experiment [1]; in experiment [2]; in experiment [3]) was over 133 µM each time.
On to `Cc1onc(-c2ccccc2)c1C(=O)N[C@@H]1C(=O)N2[C@@H]1SC(C)(C)[C@@H]2C(=O)O`, for which the IC50 (at Bile salt export pump; in experiment [1]; in experiment [2]; in experiment [3]) was over 133 µM throughout.
Regarding `COc1cc2nc(N3CCN(C(=O)C4CCCO4)CC3)nc(N)c2cc1OC` (centres undefined) [TERAZOSIN], the IC50 at Bile salt export pump was over 133 µM; in experiment [1], over 133 µM; in experiment [2] it was over 133 µM; in experiment [3], 36.8 µM.
As to `CC(SC(=O)c1cccs1)C(=O)NCC(=O)O` (centres undefined) [STEPRONIN], the IC50 (at Bile salt export pump; in experiment [1]; in experiment [2]; in experiment [3]) was over 133 µM in each case.
`C#C[C@]1(O)CC[C@H]2[C@@H]3CCc4cc(O)ccc4[C@H]3CC[C@@]21C` [ETHINYL ESTRADIOL]: the IC50 at Bile salt export pump was 14 µM; in experiment [1], over 133 µM; in experiment [2] it was over 133 µM; in experiment [3], over 133 µM.
Consider `CC(C)OC(=O)CCC/C=C\C[C@@H]1[C@@H](/C=C/[C@@H](O)COc2cccc(C(F)(F)F)c2)[C@H](O)C[C@@H]1O` [TRAVOPROST], for which the IC50 is 43.9 µM at Bile salt export pump, over 133 µM in experiment [1], over 133 µM in experiment [2] and 74 µM in experiment [3].
As to `CCOC(=O)O[C@]1(C(=O)OCCl)CC[C@H]2[C@@H]3CCC4=CC(=O)C=C[C@]4(C)[C@H]3[C@@H](O)C[C@@]21C` [LOTEPREDNOL ETABONATE], the IC50 on Bile salt export pump was 40.4 µM; in experiment [1] it was over 133 µM; in experiment [2], 15.5 µM; in experiment [3], over 133 µM.
For the compound `C#CCN(C)[C@H](C)Cc1ccccc1` [SELEGILINE HYDROCHLORIDE], the IC50 (on Bile salt export pump; in experiment [1]; in experiment [2]; in experiment [3]) was over 133 µM throughout.
As for `N[C@@H](CC(=O)N1CCn2c(nnc2C(F)(F)F)C1)Cc1cc(F)c(F)cc1F` [SITAGLIPTIN], the IC50 (at Bile salt export pump; in experiment [1]; in experiment [2]; in experiment [3]) was over 133 µM each time.
Consider `NS(=O)(=O)Cc1noc2ccccc12` [ZONISAMIDE], for which the IC50 (on Bile salt export pump; in experiment [1]; in experiment [2]; in experiment [3]) was over 133 µM each time.
Turning to `Nc1nc2ccc(OC(F)(F)F)cc2s1` [RILUZOLE], the IC50 (on Bile salt export pump; in experiment [1]; in experiment [2]; in experiment [3]) was over 133 µM throughout.
On to `COc1ccc(Cc2nccc3cc(OC)c(OC)cc23)cc1OC` [PAPAVERINE], for which the concentration for half-maximal inhibition (IC50) at Bile salt export pump was over 133 µM; in experiment [1], over 133 µM; in experiment [2], over 133 µM; in experiment [3] it was 23.1 µM.
Consider `Cc1ccnc2c1NC(=O)c1cccnc1N2C1CC1` [NEVIRAPINE], for which the IC50 (at Bile salt export pump; in experiment [1]; in experiment [2]; in experiment [3]) was over 133 µM in each case.
Turning to `O=C(O)P(=O)(O)O` [FOSCARNET SODIUM], the IC50 (at Bile salt export pump; in experiment [1]; in experiment [2]; in experiment [3]) was over 133 µM each time.
In the case of `Clc1ccc2nsnc2c1NC1=NCCN1` [TIZANIDINE], the IC50 (on Bile salt export pump; in experiment [1]; in experiment [2]; in experiment [3]) was over 133 µM each time.
`CC1(C)[C@H](C(=O)O)N2C(=O)C[C@H]2S1(=O)=O` [SULBACTAM]: the IC50 (on Bile salt export pump; in experiment [1]; in experiment [2]; in experiment [3]) was over 133 µM in each case.
For `CC1=C(CC(=O)O)c2cc(F)ccc2/C1=C\c1ccc([S+](C)[O-])cc1` (centres undefined), the half-inhibitory concentration (IC50) (at Bile salt export pump; in experiment [2]; in experiment [3]) was over 133 µM throughout.
Take `Cc1cc(C2CCCCC2)n(O)c(=O)c1` [CICLOPIROX]: the IC50 (at Bile salt export pump; in experiment [2]; in experiment [3]) was over 133 µM throughout.
As to `O=C(O)COC(=O)Cc1ccccc1Nc1c(Cl)cccc1Cl` [ACECLOFENAC], the results for the IC50 (at Bile salt export pump; in experiment [2]; in experiment [3]) were 105 µM, over 133 µM and over 133 µM, respectively.
Consider `C[C@](N)(Cc1ccc(O)c(O)c1)C(=O)O`, for which the IC50 was over 133 µM at Bile salt export pump, 41.2 µM in experiment [2] and 8.08 µM in experiment [3].
As for `CCCc1nn(C)c2c(=O)[nH]c(-c3cc(S(=O)(=O)N4CCN(C)CC4)ccc3OCC)nc12` [SILDENAFIL CITRATE], the IC50 at Bile salt export pump was 132 µM; in experiment [1], over 133 µM; in experiment [2] it was over 133 µM.
As to `N#C/C(=C1/SCC(c2ccccc2Cl)S1)n1ccnc1` (centres undefined) [LANOCONAZOLE], the figures for the IC50 (at Bile salt export pump; in experiment [2]; in experiment [3]) were 9.65 µM, over 133 µM and over 133 µM, respectively.
For BIVALIRUDIN, the IC50 (at Bile salt export pump; in experiment [1]; in experiment [3]) was over 133 µM throughout.
Regarding `CC(=O)[C@H]1[C@H](C#N)C[C@H]2[C@@H]3CC=C4C[C@@H](O)CC[C@]4(C)[C@H]3CC[C@@]21C` [PREGNENOLONE CARBONITRILE], the IC50 (on Bile salt export pump; in experiment [2]; in experiment [3]) was over 133 µM in each case.
Take `CCCCCC[C@H]1C(=O)O[C@H](C)[C@H](NC(=O)c2cccc(NC=O)c2O)C(=O)O[C@@H](C)[C@@H]1OC(=O)CC(C)C` [ANTIMYCIN A]: the figures for the IC50 (at Bile salt export pump; in experiment [2]; in experiment [3]) were 59.6 µM, over 133 µM and over 133 µM, respectively.
As to `O=c1n(CCCN2CCN(c3cccc(Cl)c3)CC2)nc2ccccn12` [TRAZODONE], the IC50 (at Bile salt export pump; in experiment [2]; in experiment [3]) was over 133 µM throughout.
Regarding `CN1C(=O)CN=C(c2ccccc2)c2cc(Cl)ccc21` [DIAZEPAM], the IC50 (on Bile salt export pump; in experiment [2]; in experiment [3]) was over 133 µM each time.
Turning to `Cc1ccc(C)c(OCCCC(C)(C)C(=O)O)c1` [GEMFIBROZIL], the IC50 (at Bile salt export pump; in experiment [2]; in experiment [3]) was over 133 µM throughout.
With `CCOC(=O)[C@H](CCc1ccccc1)N[C@@H](C)C(=O)N1Cc2ccccc2C[C@H]1C(=O)O`, the results for the IC50 (at Bile salt export pump; in experiment [2]; in experiment [3]) were 94 µM, over 133 µM and over 133 µM, respectively.
As for `O=c1n(CCCN2CCN(c3cccc(Cl)c3)CC2)nc2ccccn12` [TRAZODONE HYDROCHLORIDE], the IC50 (on Bile salt export pump; in experiment [2]; in experiment [3]) was over 133 µM throughout.
In the case of `COc1cc2nc(N3CCN(C(=O)c4ccco4)CC3)nc(N)c2cc1OC` [PRAZOSIN], the values for the half-maximal inhibitory concentration (IC50) (on Bile salt export pump; in experiment [2]; in experiment [3]) were over 133 µM, over 133 µM and 12.5 µM, respectively.
On to `Cc1cnc(NC(=O)C2=C(O)c3ccccc3S(=O)(=O)N2C)s1` [MELOXICAM], for which the IC50 at Bile salt export pump is 77.5 µM; in experiment [2], over 133 µM; in experiment [3], over 133 µM.
